Results: patent EP2067771A1, “Derivatives of Dihydroxypyrrolidine as Anti-Cancer Compounds” (EPFL Ecole Polytechnique Fédérale de Lausanne, priority 2007, dated 2009)
Where two headings read alike, the source gives them in different places.

Columns and labels:
human glioblastoma cells = conditions: S. Favre et al., Heterocycles 2006; cited from earlier work
glioblastoma cell growth = conditions: H. Fiaux et al., J. Med. Chem. 2005; cited from earlier work
A549 = assay: Viability assay (CellTiter 96 Aqueous1), cell growth inhibition; type: cell-based; conditions: Homo sapiens; A549 (lung carcinoma), viability 72 hours after addition
Protocol: (§1) Cell lines and reagents. The tumor cell lines used for the in vitro evaluation of cell growth inhibition by dihydroxypirolidine derivatives were U87 (glioblastoma), PC3 (prostate cancer), A549 (lung carcinoma), MDA-MB231, MCF7, BT474, and SKBR3 (breast cancer). Cells were grown in 10-cm culture dishes with McCoy medium containing 10% fetal calf serum (FCS) and antibiotics at 37°C and 5% CO2. The dihydroxypirolidine derivatives CB161, CB181, and CB183 were weighted and dissolved in DMSO to prepare a stock solution concentrated 100 mM.
(§2) Viability assays. For the viability assays, 5 x 10^4 cells/well were plated in 200 µl medium in 96 well plates. 48 hours later, the dihydroxypirolidine derivatives were added to the wells at concentrations ranging between 10^-2 and 400 µM, such that the vehicle DMSO never exceeded 0.4%. Each drug concentration was tested in duplicate. Viability was determined 72 hours later using CellTiter 96 Aqueous1 (Promega) according to the manufacturer's instructions. Incubation times with CellTiter96 Aqueous1 ranged between 2 and 4 hours. Plates were read with a spectrophotometer (Labsystems iEMS Reader MF) at 490 nm wave length. IC50s were estimated using GraphPad Prism4.

BT474 = assay: as above; type: cell-based; conditions: Homo sapiens, BT-474; BT474 (breast cancer), viability 72 hours after addition
Protocol: as §1, §2

MCF7 = assay: as above; type: cell-based; conditions: Homo sapiens; MCF7 (breast cancer), viability 72 hours after addition
Protocol: as §1, §2

MDA-MB-231 = assay: as above; type: cell-based; conditions: Homo sapiens; MDA-MB-231 (breast cancer), viability 72 hours after addition
Protocol: as §1, §2

PC3 = assay: as above; type: cell-based; conditions: Homo sapiens, PC-3; PC3 (prostate cancer), viability 72 hours after addition
Protocol: as §1, §2

SKBR3 = assay: as above; type: cell-based; conditions: Homo sapiens, SK-BR-3; SKBR3 (breast cancer), viability 72 hours after addition
Protocol: as §1, §2

U87 = assay: as above; type: cell-based; conditions: Homo sapiens, U-87 MG
Protocol: as §1, §2

[1] = tested on: seven established human tumor cell lines; assay: Viability assay, panel of seven tumor cell lines; type: cell-based; conditions: all the cell lines tested
Protocol: as §1, §2

[2] = refers to Figure 8 (U87 glioblastoma), read-out: IC50s (growth inhibition effects)

In the case of O=C(NC[C@H](NC[C@H]1NC[C@H](O)[C@@H]1O)c1ccccc1)c1cccc(Br)c1 [N-[(2R)-2-({[(2R,3R,4S)-3,4-dihydroxypyrrolidin-2-yl]methyl}amino)-2-phenylethyl]-3-bromobenz-amide], the “inhibition of human glioblastoma cells” value (human glioblastoma cells) is listed as “convincing inhibition”.
In the case of O[C@H]1[C@H]2[C@H](O)CCCN2C[C@H]1O [swainsonine], the “inhibitory effect on glioblastoma cell growth” value (glioblastoma cell growth) is listed as “only little inhibitory effect”.
Work on OC[C@H](NC[C@H]1NC[C@H](O)[C@@H]1O)c1ccc(-c2ccc(C(F)(F)F)cc2)cc1 [CB183, (2R,3R,4S)-2-{{{(1R)-2-hydroxy-1-[4'-(trifluoromethyl)-[1,1'-biphenyl]-4-1]ethyl}amino}methyl}pyrrolidine-3,4-diol] yielded an IC50 (A549) of 152 µM, an IC50 (BT474) of 93.3 µM and an IC50 (MCF7) of 76.7 µM. For the same compound, the IC50 (MDA-MB-231) was 65.8 µM, the IC50 (PC3) was 132 µM and the IC50 (SKBR3) was 48.3 µM. The IC50 (U87; U87 (glioblastoma), viability 72 hours after addition, read-out: IC50) was 80 µM and the “potent cytotoxic activity for concentrations” value [1] was under 200 µM.
Work on OC[C@H](NC[C@H]1NC[C@H](O)[C@@H]1O)c1ccc(-c2ccccc2)cc1 [CB161] yielded an IC50 (U87; [2]) of over 200 µM.
In the case of C=CCOc1ccc([C@H](CO)NC[C@H]2NC[C@H](O)[C@@H]2O)cc1 [CB181, (2R,3R,4S)-2{{{(1R)-2-hydroxy-1-[4-(prop-2-enyloxy)phenyl]ethyl}amino}methyl} pyrrolidine-3,4-diol], the IC50 (U87; [2]) is reported as over 200 µM.
